Source: US8492346B2, “Methods of use of epsilon inhibitor compounds for the attenuation of pain” (KAI Pharmaceuticals, Inc., priority 2007, dated 2013)

How the values were obtained:
[1] = Plasma stability in rat sera; type: in vitro ADME; settings: 30 minutes
Method: (§1) The plasma and chemical stability of various cargo/carrier peptide constructs described in Example 1 was tested. Plasma stability of the compounds was tested using both human and rat sera and the amount of starting material was determined after 30 minutes of treatment. Chemical stability was evaluated by determining the amount of starting material remaining after 9 days of treatment.
(§2) The plasma stability of various cargo/carrier peptide constructs described in Example 1 was tested using both human and rat sera and the amount of starting material was determined over time to 30 minutes of treatment. The time course data for cargo/carrier peptides KP-1586, KP-1630, and KP-1631 is shown in FIG. 3, the data for peptides KP-1632, KP-1633, and KP-1634 is shown in FIG. 4, and the data for peptides KP-1635, KP-1636, and KP-1637 is shown in FIG. 5.

[2] = Plasma stability in human sera; type: in vitro ADME; settings: plasma; human sera, 30 minutes
Method: as §1, §2

[3] = Chemical stability of cargo/carrier peptide constructs; type: physicochemical; settings: 9 days of treatment
Method: as §1
The chemical stability of various cargo/carrier peptide constructs described in Example 1 was tested by examining the relative concentration of the peptides over a time period of more than 200 hours at 37° C.

CC(=O)N[C@@H](CCC(=O)O)C(=O)N[C@@H](C)C(=O)N[C@H](C(=O)N[C@@H](CO)C(=O)N[C@@H](CC(C)C)C(=O)N[C@@H](CCCCN)C(=O)N1CCC[C@H]1C(=O)N[C@H](C(=O)NCC(=O)NCC(=O)NCCCC[C@H](NC(=O)CNC(=O)CNC(=O)[C@@H](NC(=O)[C@@H]1CCCN1C(=O)[C@H](CCCCN)NC(=O)[C@H](CC(C)C)NC(=O)[C@H](CO)NC(=O)[C@@H](NC(=O)[C@H](C)NC(=O)[C@H](CCC(=O)O)NC(C)=O)C(C)C)[C@@H](C)O)C(=O)N[C@@H](CSSC[C@H](NC(C)=O)C(=O)N[C@@H](Cc1ccc(O)cc1)C(=O)NCC(=O)N[C@@H](CCCNC(=N)N)C(=O)N[C@@H](CCCCN)C(=O)N[C@@H](CCCCN)C(=O)N[C@@H](CCCNC(=N)N)C(=O)N[C@@H](CCCNC(=N)N)C(=O)N[C@@H](CCC(N)=O)C(=O)N[C@@H](CCCNC(=N)N)C(=O)N[C@@H](CCCNC(=N)N)C(=O)N[C@@H](CCCNC(=N)N)C(N)=O)C(=O)O)[C@@H](C)O)C(C)C [KP-1634, [Ac-E-A-V-S-L-K-P-T-G-G]-K-C]
remaining at 0.5 h [1]: 106%
remaining at 0.5 h [2]: 87%
remaining at 216 h [3]: 82%
